Assay results reported in patent publication US9006455B2 (Bristol-Myers Squibb Company, priority 2009, dated 2015).
Where two headings read alike, the source gives them in different places.

System: HCV 1b genotype
Assay: HCV Replicon assay (HCV 1b genotype)
Type: cell-based
Details: Hepatitis C virus, HCV 1b genotype replicon
In short: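 Cell-based HCV genotype 1b replicon assay in HCV-neo replicon cells, including replicons carrying NS5A resistance substitutions; luciferase reporter read-outs also used.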

[1] = read-out: Range (EC50 values against HCV 1b)

Structure (SMILES): COC(=O)N[C@H](C(=O)N1[C@@H]2C[C@@H]2C[C@H]1c1ncc(-c2ccc3cc(-c4ccc5nc([C@@H]6C[C@H]7C[C@H]7N6C(=O)[C@@H](NC(=O)OC)C6CCOCC6)[nH]c5c4)ccc3c2)[nH]1)C1CCOCC1 [Example 45, Methyl((1S)-2-((1R,3S,5R)-3-(4-(6-(2-((1R,3S,5R)-2-((2S)-2-((methoxycarbonyl)amino)-2-(tetrahydro-2H-pyran-4-yl)acetyl)-2-azabicyclo[3.1.0]hex-3-yl)-1H-benzimidazol-5-yl)-2-naphthyl)-1H-imidazol-2-yl)-2-azabicyclo[3.1.0]hex-2-yl)-2-oxo-1-(tetrahydro-2H-pyran-4-yl)ethyl)carbamate]
- EC50 [1]: 0.0101 to 1 nM

Structure (SMILES): COC(=O)N[C@H](C(=O)N[C@@H](C)c1ncc(-c2ccc(-c3ccc4cc(-c5cnc([C@H](C)NC(=O)[C@@H](NC(=O)OC)C6CCOCC6)[nH]5)ccc4c3)cc2)[nH]1)C1CCOCC1 [Example 125, Methyl((1S)-2-(((1S)-1-(4-(4-(6-(2-((1S)-1-(((2S)-2-((methoxycarbonyl)amino)-2-(tetrahydro-2H-pyran-4-yl)acetyl)amino)ethyl)-1H-imidazol-4-yl)-2-naphthyl)phenyl)-1H-imidazol-2-yl)ethyl)amino)-2-oxo-1-(tetrahydro-2H-pyran-4-yl)ethyl)carbamate]
- EC50 (read-out: EC50): 0.136 nM
- EC50 [1]: 0.0101 to 1 nM

Structure (SMILES): CN(C)[C@@H](C(=O)N1CCC[C@H]1c1nc2ccc(-c3ccc4cc(-c5ccc6nc([C@@H]7CCCN7C(=O)[C@@H](c7ccccc7)N(C)C)[nH]c6c5)ccc4c3)cc2[nH]1)c1ccccc1 [Example 8, (1R)-2-((2S)-2-(5-(6-(2-((2S)-1-((2R)-2-(Dimethylamino)-2-phenylacetyl)-2-pyrrolidinyl)-1H-benzimidazol-6-yl)-2-naphthyl)-1H-benzimidazol-2-yl)-1-pyrrolidinyl)-N,N-dimethyl-2-oxo-1-phenylethanamine]
- EC50 [1]: 0.0101 to 1 nM

Structure (SMILES): CC(C)(C)OC(=O)N1CCC[C@H]1c1nc(-c2ccc3cc(-c4c[nH]c([C@@H]5CCCN5C(=O)OC(C)(C)C)n4)ccc3c2)c[nH]1 [Intermediate 52, (2S,2′S)-tert-Butyl 2,2′-(4,4′-(naphthalene-2,6-diyl)bis(1H-imidazole-4,2-diyl))dipyrrolidine-1-carboxylate]
- EC50 [1]: 1.01 to 1000 nM

Structure (SMILES): COC(=O)N[C@H](C(=O)N1[C@@H]2C[C@@H]2C[C@H]1c1nc2ccc(-c3ccc4nc(-c5ccc6nc([C@@H]7C[C@H]8C[C@H]8N7C(=O)[C@@H](NC(=O)OC)C7CCOCC7)[nH]c6c5)ccc4c3)cc2[nH]1)C1CCOCC1 [Example 39, Dimethyl(2,6-quinolinediylbis(1H-benzimidazole-5,2-diyl(1R,3S,5R)-2-azabicyclo[3.1.0]hexane-3,2-diyl((1S)-2-oxo-1-(tetrahydro-2H-pyran-4-yl)-2,1-ethanediyl)))biscarbamate]
- EC50 [1]: 0.0101 to 1 nM

Structure (SMILES): COC(=O)N[C@H](C(=O)N1[C@@H]2C[C@@H]2C[C@H]1c1ncc(-c2ccc3cc(C#Cc4cnc([C@@H]5C[C@H]6C[C@H]6N5C(=O)[C@@H](NC(=O)OC)C5CCOCC5)[nH]4)ccc3c2)[nH]1)C(C)C [Example 96, Methyl((1S)-2-((1R,3S,5R)-3-(4-((6-(2-((1R,3S,5R)-2-((2S)-2-((methoxycarbonyl)amino)-3-methylbutanoyl)-2-azabicyclo[3.1.0]hex-3-yl)-1H-imidazol-4-yl)-2-naphthyl)ethynyl)-1H-imidazol-2-yl)-2-azabicyclo[3.1.0]hex-2-yl)-2-oxo-1-(tetrahydro-2H-pyran-4-yl)ethyl)carbamate]
- EC50 [1]: 0.0101 to 1 nM

Structure (SMILES): COC(=O)NC(C(=O)N1[C@@H]2C[C@@H]2C[C@H]1c1ncc(C#Cc2ccc3cc(-c4cnc([C@@H]5C[C@H]6C[C@H]6N5C(=O)C(NC(=O)OC)C5CCOCC5)[nH]4)ccc3c2)[nH]1)C1CCOCC1 (stereo partly drawn) [Example 75, methyl(2-((1R,3S,5R)-3-(4-(6-((2-((1R,3S,5R)-2-(((methoxycarbonyl)amino)(tetrahydro-2H-pyran-4-yl)acetyl)-2-azabicyclo[3.1.0]hex-3-yl)-1H-imidazol-4-yl)ethynyl)-2-naphthyl)-1H-imidazol-2-yl)-2-azabicyclo[3.1.0]hex-2-yl)-2-oxo-1-(tetrahydro-2H-pyran-4-yl)ethyl)carbamate]
- EC50 (read-out: EC50): 0.123 nM
- EC50 [1]: 1.01 to 1000 nM

Structure (SMILES): COC(=O)N[C@H](C(=O)N1C[C@@H](C)C[C@H]1c1ncc(-c2ccc(-c3ccc4nc(-c5cnc([C@@H]6C[C@H](C)CN6C(=O)[C@@H](NC(=O)OC)C6CCOCC6)[nH]5)ccc4c3)cc2)[nH]1)C1CCOCC1 [Example 114, Methyl((1S)-2-((2S,4S)-2-(4-(6-(4-(2-((2S,4S)-1-((2S)-2-((methoxycarbonyl)amino)-2-(tetrahydro-2H-pyran-4-yl)acetyl)-4-methyl-2-pyrrolidinyl)-1H-imidazol-4-yl)phenyl)-2-quinolinyl)-1H-imidazol-2-yl)-4-methyl-1-pyrrolidinyl)-2-oxo-1-(tetrahydro-2H-pyran-4-yl)ethyl)carbamate]
- EC50 [1]: 0.0101 to 1 nM

Structure (SMILES): COC(=O)N[C@H](C(=O)N1CCC[C@H]1c1nc2cc(-c3ccc4ccc(-c5ccc6nc([C@@H]7CCCN7C(=O)[C@@H](NC(=O)OC)C(C)C)[nH]c6c5)cc4c3)ccc2[nH]1)C(C)C [Example 1, Methyl((1S)-1-(((2S)-2-(5-(7-(2-((2S)-1-((2S)-2-((methoxycarbonyl)amino)-3-methylbutanoyl)-2-pyrrolidinyl)-1H-benzimidazol-5-yl)-2-naphthyl)-1H-benzimidazol-2-yl)-1-pyrrolidinyl)carbonyl)-2-methylpropyl)carbamate]
- EC50 [1]: 1.01 to 1000 nM
